Drawing on patent publication US11427548B2 (Arvinas Operations, Inc., priority 2015, dated 2022), this text covers DC50 and Dmax for 11 molecules.

As usually defined, the DC50 is the concentration giving 50% degradation. Broadly, the Dmax is the greatest extent of degradation seen.

Each structure is given as a SMILES string. Read-outs that look alike come from different tables or passages of the source. A value given as a limit tells only on which side of the number the result lay.

The target of this experiment is T1, Androgen Receptor (Homo sapiens, UniProt P10275).
T1 construct: endogenous in cells; host or cells: VCaP cells
T1 sequence (P10275 1-920): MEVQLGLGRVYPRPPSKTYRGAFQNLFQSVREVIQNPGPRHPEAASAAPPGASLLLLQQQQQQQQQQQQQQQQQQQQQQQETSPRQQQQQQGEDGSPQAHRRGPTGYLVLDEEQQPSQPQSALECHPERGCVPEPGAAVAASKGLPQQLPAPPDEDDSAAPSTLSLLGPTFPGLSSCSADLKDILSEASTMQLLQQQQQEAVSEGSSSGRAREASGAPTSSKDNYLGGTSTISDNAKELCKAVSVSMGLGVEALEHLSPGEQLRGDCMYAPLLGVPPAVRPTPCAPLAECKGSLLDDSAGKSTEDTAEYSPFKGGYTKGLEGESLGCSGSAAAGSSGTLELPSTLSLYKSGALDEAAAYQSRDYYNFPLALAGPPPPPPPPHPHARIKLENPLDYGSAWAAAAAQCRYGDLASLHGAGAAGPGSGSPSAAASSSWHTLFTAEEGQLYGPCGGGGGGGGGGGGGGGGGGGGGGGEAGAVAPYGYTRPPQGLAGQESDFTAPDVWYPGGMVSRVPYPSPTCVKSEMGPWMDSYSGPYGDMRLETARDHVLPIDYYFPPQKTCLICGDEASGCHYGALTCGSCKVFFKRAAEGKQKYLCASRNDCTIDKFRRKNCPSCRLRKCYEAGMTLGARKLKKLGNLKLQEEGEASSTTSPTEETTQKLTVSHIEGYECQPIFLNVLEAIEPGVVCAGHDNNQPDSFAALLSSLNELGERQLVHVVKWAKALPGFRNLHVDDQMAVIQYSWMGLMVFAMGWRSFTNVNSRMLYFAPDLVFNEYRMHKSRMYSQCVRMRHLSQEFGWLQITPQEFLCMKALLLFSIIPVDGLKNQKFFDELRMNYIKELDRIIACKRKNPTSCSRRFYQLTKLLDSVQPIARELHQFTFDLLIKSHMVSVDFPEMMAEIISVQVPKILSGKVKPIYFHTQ
As to the kind of experiment: Androgen Receptor ELISA assay (PathScan AR ELISA) in VCaP cells: AR degradation, Dmax and DC50. It is filed as cell-based. In outline: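 VCaP cells, 30,000/well, grown ≥3 days in phenol red-free RPMI with 5% charcoal-stripped FBS; compound added in 0.1% DMSO with 0.1 nM R1881, 7 half-log doses, 24 h. Lysate AR quantified by PathScan sandwich ELISA, HRP/TMB read at 450 nm, giving DC50 and Dmax.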
Background: In an ELISA, binding on a coated surface is turned into a signal by an enzyme label.

Setting [1] is: read-out: VCaP DC50; VCaP cells; Table 36.
The mark [2] stands for this setting: VCaP cells; Table 36; read-out: VCaP DC50.
The mark [3] stands for this setting: VCaP, VCaP cells; Table 36; read-out: VCaP Dmax (%).

With `Cc1ncsc1-c1ccc([C@H](C)NC(=O)[C@@H]2C[C@@H](O)CN2C(=O)[C@@H](NC(=O)CN2CCO[C@@H](CN3CCO[C@H](COc4ccc(N5C(=O)N(c6ccc(C#N)c(C(F)(F)F)c6)C(=O)C5(C)C)cc4)C3)C2)C(C)(C)C)cc1` [Example 676, (2S,4R)-1-((S)-2-(2-((S)-2-(((S)-2-((4-(3-(4-cyano-3-(trifluoromethyl)phenyl)-5,5-dimethyl-4-oxo-2-thioxoimidazolidin-1-yl)phenoxy)methyl)mor-pholino)methyl)mor-phpolino)acetamido)-3,3-dimethylbutanoyl)-4-hydroxy-N-((S)-1-(4-(4-methylthiazol-5-yl)phenyl)ethyl)pyrrolidine-2-carboxamide], under setting [1], the DC50 is above 0.501 µM.
The same measure, in the same setting: to `Cc1ncsc1-c1ccc([C@H](C)NC(=O)[C@@H]2C[C@@H](O)CN2C(=O)[C@@H](NC(=O)OCc2ccccc2)[C@@H](C)OCCCCCCOc2ccc(N3C(=O)N(c4ccc(C#N)c(C(F)(F)F)c4)C(=O)C3(C)C)cc2)cc1` [Example 677, benzyl ((2S,3R)-3-((6-(4-(3-(4-cyano-3-(trifluoromethyl)phenyl)-5,5-dimethyl-4-oxo-2-thioxoimidazolidin-1-yl)phenoxy)hexyl)oxy)-1-((2S,4R)-4-hydroxy-2-(((S)-1-(4-(4-methylthiazol-5-yl)phenyl)ethyl)carbam-oyl)pyrrolidin-1-y)-1-oxobutan-2-yl)carbamate] belongs above 0.501 µM.
For `Cc1ncsc1-c1ccc([C@H](C)NC(=O)[C@@H]2C[C@@H](O)CN2C(=O)[C@@H](NC(=O)COCCN(C)CCCc2ccc(C(=O)N[C@H]3C(C)(C)[C@H](Oc4ccc(C#N)c(Cl)c4)C3(C)C)nc2)C(C)(C)C)cc1` [Example 678, N-((1r,3r)-3-(3-chloro-4-cyanophenoxy)-2,2,4,4-tetramethylcyclobutyl)-5-(3-((2-(2-(((S)-1-((2S,4R)-4-hydroxy-2-(((S)-1-(4-(4-methylthiazol-5-yl)phenyl)ethyl)carbam-oyl)pyrrolidin-1-yl)-3,3-dimethyl-1-oxobutan-2-yl)amino)-2-oxoethoxy)ethyl)(meth-yl)amino)propyl)picolin-amide], the DC50 under setting [2] is above 0.501 µM.
Same read-out and setting: next, `Cc1ncsc1-c1ccc([C@H](C)NC(=O)[C@@H]2C[C@@H](O)CN2C(=O)[C@@H](NC(=O)C(=O)N2CCN(CCOc3ccc(C(=O)N[C@H]4C(C)(C)[C@H](Oc5ccc(C#N)c(C(F)(F)F)c5)C4(C)C)cc3)CC2)C(C)(C)C)cc1` [Example 679, (2S,4R)-1-((S)-2-(2-(4-(2-(4-(((1r,3r)-3-(4-cyano-3-(trifluoromethyl)phenoxy)-2,2,4,4-tetramethylcyclobutyl)carbamoyl)phenoxy)eth-yl)piperazin-1-yl)-2-oxoacetamido)-3,3-dimethylbutanoyl)-4-hydroxy-N-((S)-1-(4-(4-methylthiazol-5-yl)phenyl)ethyl)pyrrolidine-2-carboxamide]: above 0.501 µM.
As for `Cc1cc(O[C@H]2C(C)(C)[C@H](NC(=O)c3ccc(N4CCN(CCOCC(=O)N[C@H](C(=O)N5C[C@H](O)C[C@H]5C(=O)N[C@@H](C)c5ccc(-c6scnc6C)cc5)C(C)(C)C)CC4)nc3)C2(C)C)ccc1C#N` [Example 680, N-((1r,3r)-3-(4-cyano-3-methylphenoxy)-2,2,4,4-tetramethylcyclobutyl)-6-(4-(2-(2-(((S)-1-((2S,4R)-4-hydroxy-2-(((S)-1-(4-(4-methylthiazol-5-yl)phenyl)ethyl)carbam-oyl)pyrrolidin-1-yl)-3,3-dimethyl-1-oxobutan-2-yl)amino)-2-oxoethoxy)ethyl)pipera-zin-1-yl)nicotinamide], the DC50 under setting [2] is below 0.05 µM. The Dmax (VCaP, read-out: VCaP Dmax (%), VCaP cells; Table 36) is above 71%.
Take `Cc1nc(O[C@H]2C(C)(C)[C@H](NC(=O)c3ccc(N4CCN(CCOCC(=O)N[C@H](C(=O)N5C[C@H](O)C[C@H]5C(=O)N[C@@H](C)c5ccc(-c6scnc6C)cc5)C(C)(C)C)CC4)nc3)C2(C)C)ccc1C#N` [Example 682, N-((1r,3r)-3-((5-cyano-6-methylpyridin-2-yl)oxy)-2,2,4,4-tetramethylcyclobutyl)-6-(4-(2-(2-(((S)-1-((2S,4R)-4-hydroxy-2-(((S)-1-(4-(4-methylthiazol-5-yl)phenyl)ethyl)carbam-oyl)pyrrolidin-1-yl)-3,3-dimethyl-1-oxobutan-2-yl)amino)-2-oxoethoxy)ethyl)pipera-zin-1-yl)nicotinamdie]: the DC50 under setting [2] was below 0.05 µM. The Dmax under setting [3] is above 71%.
Take `Cc1ncsc1-c1ccc([C@H](C)NC(=O)[C@@H]2C[C@@H](O)CN2C(=O)[C@H](C(C)C)N(C)C(=O)CN2CCN(CCOc3ccc(C(=O)N[C@H]4C(C)(C)[C@H](Oc5ccc(C#N)c(Cl)c5)C4(C)C)cc3)CC2)cc1` [Example 683, (2S,4R)-1-(N-(2-(4-(2-(4-(((1r,3r)-3-(3-chloro-4 cyanophenoxy)-2,2,4,4-tetramethylcyclobutyl)carbamoyl)phenoxy)eth-yl)piperazin-1-yl)acetayl)-N-methyl-L-valyl)-4-hydroxy-N-((S)-1-(4-(4-methylthiazol-5-yl)phenyl)ethyl)pyrrolidine-2-carboxamide]: the DC50 under setting [2] was above 0.501 µM. In addition, the Dmax under setting [3] fell in the range of 26 to 50%.
Consider `Cc1ncsc1-c1ccc([C@H](C)NC(=O)[C@@H]2C[C@@H](O)CN2C(=O)[C@@H](NC(=O)COCCN2CCN(c3ccc(C(=O)N[C@H]4C(C)(C)[C@H](Oc5ccc(C#N)c(C(F)(F)F)c5)C4(C)C)nn3)CC2)C(C)(C)C)cc1` [Example 684, N-((1r,3r)-3-(4-cyano-3-(trifluoromethyl)phenoxy)-2,2,4,4-tetramethylcyclobutyl)-6-(4-(2-(2-(((S)-1-((2S,4R)-4-hydroxy-2-(((S)-1-(4-(4-methylthiazol-5-yl)phenyl)ethyl)carbam-oyl)pyrrolidin-1-yl)-3,3-dimethyl-1-oxobutan-2-yl)amino)-2-oxoethoxy)ethyl)pipera-zin-1-yl)pyridazine-3-carboxamide], for which the DC50 under setting [2] was below 0.05 µM. Moreover, the Dmax under setting [3] was in the range of 51 to 70%.
The matching figures for `Cc1ncsc1-c1ccc([C@H](C)NC(=O)[C@@H]2C[C@@H](O)CN2C(=O)[C@@H](NC(=O)COCCCCCC2(c3ccc(C(=O)N[C@H]4C(C)(C)[C@H](Oc5ccc(C#N)c(Cl)c5)C4(C)C)cc3)COC2)C(C)(C)C)cc1` [Example 685, (2S,4R)-1-((S)-2-(2-((5-(3-(4-(((1r,3r)-3-(3-chloro-4-cyanophenoxy)-2,2,4,4-tetramethylcyclobutyl)carbamoyl)phenyl)oxetan-3-yl)pentyl)oxy)acetamido)-3,3-dimethylbutanoyl)-4-hydroxy-N-((S)-1-(4-(4-methylthiazol-5-yl)phenyl)ethyl)pyrrolidine-2-carboxamide]: below 0.05 µM and above 71%.
`Cc1ncsc1-c1ccc([C@H](C)NC(=O)[C@@H]2C[C@@H](O)CN2C(=O)[C@@H](NC(=O)CN2CCN(CC3(CNc4ccc(C(=O)N[C@H]5C(C)(C)[C@H](Oc6ccc(C#N)c(C(F)(F)F)c6)C5(C)C)cc4)COC3)CC2)C(C)(C)C)cc1` [Example 686, (2S,4R)-1-((S)-2-(2-(4-((3-(((4-(((1r,3r)-3-(4-cyano-3-(trifluoromethyl)phenoxy)-2,2,4,4-tetramethylcyclobutyl)carbamoyl)phenyl)amino)methyl)oxetan-3-yl)methyl)piperazin-1-yl)acetamido)-3,3-dimethylbutanoyl)-4-hydroxy-N-((S)-1-(4-(4-methylthiazol-5-yl)phenyl)ethyl)pyrrolidine-2-carboxamide]: the Dmax (VCaP, read-out: VCaP Dmax (%)) was 26 to 50%. In addition, under setting [1], the DC50 is below 0.05 µM.
`Cc1ncsc1-c1ccc([C@H](C)NC(=O)[C@@H]2C[C@@H](O)CN2C(=O)[C@@H](NC(=O)CCCCC(CCCc2ccc(C(=O)N[C@H]3C(C)(C)[C@H](Oc4ccc(C#N)c(Cl)c4)C3(C)C)nc2)N2CCN(C)CC2)C(C)(C)C)cc1` (stereo partly drawn) [Example 687, N-((1R,3R)-3-(3-chloro-4-cyanophenoxy)-2,2,4,4-tetramethylcyclobutyl)-5-(9-(((S)-1-((2S,4R)-4-hydroxy-2-(((S)-1-(4-(4-methylthiazol-5-yl)phenyl)ethyl)carbam-oyl)pyrrolidin-1-yl)-3,3-dimethyl-1-oxobutan-2-yl)amino)-4-(4-methylpiperazin-1-yl)-9-oxononyl)picolinamide]: the DC50 under setting [2] was 0.051 to 0.5 µM. Also, the Dmax under setting [3] is 26 to 50%.
